From patent US20120065187A1 (ALCON RESEARCH, LTD, priority 2008, published 2012)
Where a name gives a salt, the structure may show the parent alone.

What was measured:
human H1 = biological target: T1, human H1 (Homo sapiens, UniProt P35367); test: In vitro histamine receptor cell-based assay (aequorin bioluminescence), H1 antagonism; conditions: CHO-K1 cells expressing human H1 and aequorin; histamine at EC80; read-out: H1 Antagonist EC50
T1 construct: host or cells: CHO-K1
How it was run: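 Antagonism read as drop in aequorin luminescence after histamine challenge at a predetermined EC80, following 15 min compound pretreatment at room temperature. Cells: CHO-K1 carrying human H1, or H4 with Gα16; signal as AUC or amplitude, normalised to 10 μM diphenhydramine (H1) or JNJ7777120 (H4).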

human H4 = biological target: T2, human H4 (Homo sapiens, UniProt Q9H3N8); test: In vitro histamine receptor cell-based assay (aequorin bioluminescence), H4 antagonism; conditions: CHO-K1 cells expressing human H4, aequorin and Gα16; histamine at EC80; read-out: H4 Antagonist EC50
T2 construct: host or cells: CHO-K1
How it was run: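 Antagonism read as loss of aequorin luminescence after histamine (EC80 final) addition, following 15 min room-temperature compound pretreatment of coelenterazine-h-loaded (5 μM) CHO-K1 cells co-expressing human H4 and Gα16. Efficacy given relative to 10 μM JNJ7777120; agonism excluded in separate no-histamine runs.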

T1 sequence (P35367 whole entry): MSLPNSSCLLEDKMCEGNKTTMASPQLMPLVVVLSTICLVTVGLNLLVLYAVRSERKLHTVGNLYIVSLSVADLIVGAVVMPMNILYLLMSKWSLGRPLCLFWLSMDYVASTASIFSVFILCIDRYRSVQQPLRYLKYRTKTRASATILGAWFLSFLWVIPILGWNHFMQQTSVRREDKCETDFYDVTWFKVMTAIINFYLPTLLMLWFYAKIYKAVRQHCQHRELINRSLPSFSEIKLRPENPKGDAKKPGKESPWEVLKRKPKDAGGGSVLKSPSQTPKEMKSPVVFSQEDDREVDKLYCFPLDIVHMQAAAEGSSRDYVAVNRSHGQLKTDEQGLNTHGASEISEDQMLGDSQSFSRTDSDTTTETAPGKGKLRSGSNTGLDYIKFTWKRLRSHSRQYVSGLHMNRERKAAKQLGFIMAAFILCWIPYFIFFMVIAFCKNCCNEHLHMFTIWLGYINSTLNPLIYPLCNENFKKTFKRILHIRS

An EC50 (human H1) of over 10 µM and an EC50 (human H4) of over 10 µM were found for `CC(C)(C)OC(=O)N1CCN(c2nc3ccc(Cl)cc3n3cnnc23)CC1` [Example 56, tert-butyl 4-(8-chloro-[1,2,4]triazolo[4,3-a]quinoxalin-4-yl)piperazine-1-carboxylate] in this work.

An EC50 (human H1) of over 10 µM and an EC50 (human H4) of under 10 µM were found for `C=Cc1ccc2nc(N3CCNCC3)c3nncn3c2c1` [Example 89, 4-(piperazin-1-yl)-8-vinyl-[1,2,4]triazolo[4,3-a]quinoxaline] in this work.

An EC50 (human H1) of over 10 µM and an EC50 (human H4) of under 10 µM were found for `NC1CCN(c2nc3ccc(Cl)cc3n3cnnc23)C1` (stereo not drawn) [Example 59, 1-(8-chloro-[1,2,4]triazolo[4,3-a]quinoxalin-4-yl)pyrrolidin-3-amine] in this work.

An EC50 (human H1) of over 10 µM and an EC50 (human H4) of under 10 µM were found for `CC(C)c1ccc2nc(N3CCN(C)CC3)c3nncn3c2c1` [Example 173, 8-isopropyl-4-(4-methylpiperazin-1-yl)-[1,2,4]triazolo[4,3-a]quinoxaline] in this work.

An EC50 (human H1) of over 10 µM and an EC50 (human H4) of under 10 µM were found for `CCc1ccc2nc(N3CCNCC3)n3nc(C)nc3c2c1` [Example 140, 9-ethyl-2-methyl-5-(piperazin-1-yl)-[1,2,4]triazolo[1,5-c]quinazoline] in this work.

An EC50 (human H1) of over 10 µM and an EC50 (human H4) of over 10 µM were found for `Cc1nc2c(N3CCN(C)CC3)nc3ccc(Cl)cc3c2[nH]1` [Example 162, 8-Chloro-2-methyl-4-(4-methylpiperazinyl)imidazo[4,5-c]quinoline] in this work.

An EC50 (human H1) of over 10 µM and an EC50 (human H4) of under 10 µM were found for `Clc1ccc2nc(N3CC4CCCNC4C3)c3nncn3c2c1` (stereo not drawn) [Example 61, 8-chloro-4-(tetrahydro-1H-pyrrolo[3,4-b]pyridin-6(2H,7H,7aH)-yl)-[1,2,4]triazolo[4,3-a]quinoxaline] in this work.

An EC50 (human H1) of over 10 µM and an EC50 (human H4) of under 10 µM were found for `CCc1ccc2nc(N3CCN(C)CC3)c3nncn3c2c1` [Example 90, 8-ethyl-4-(4-methylpiperazin-1-yl)-[1,2,4]triazolo[4,3-a]quinoxaline] in this work.

An EC50 (human H1) of over 10 µM and an EC50 (human H4) of under 10 µM were found for `CN1CCN(c2nc3c(F)c(C(F)(F)F)ccc3n3cnnc23)CC1` [Example 170, 6-fluoro-4-(4-methylpiperazin-1-yl)-7-(trifluoromethyl)-[1,2,4]triazolo[4,3-a]quinoxaline] in this work.

An EC50 (human H1) of over 10 µM and an EC50 (human H4) of under 10 µM were found for `CN1CCN(c2nc3ccc(Cl)cc3c3c2ncn3C)CC1` [Example 159, 8-Chloro-1-methyl-4-(4-methylpiperazin-1-yl)-1H-imidazo[4,5-c]quinoline] in this work.

An EC50 (human H1) of over 10 µM and an EC50 (human H4) of under 10 µM were found for `CN1CCN(c2nc3ccc(Cl)cc3c3nnnn23)CC1` [Example 13, 9-chloro-5-(4-methylpiperazin-1-yl)tetrazolo[1,5-c]quinazoline] in this work.

An EC50 (human H1) of over 10 µM and an EC50 (human H4) of under 10 µM were found for `Cc1nc2c3cc(C(F)(F)F)cc(F)c3nc(N3CCNCC3)n2n1` [Example 128, 7-fluoro-2-methyl-5-(piperazin-1-yl)-9-(trifluoromethyl)-[1,2,4]triazolo[1,5-c]quinazoline hydrochloride] in this work.

An EC50 (human H1) of over 10 µM and an EC50 (human H4) of under 10 µM were found for `CN1CCN(c2nc3ccc(C(F)(F)F)cc3n3ccnc23)CC1` [Example 177] in this work.

An EC50 (human H1) of over 10 µM and an EC50 (human H4) of under 10 µM were found for `CN1CCN(c2nc3cc(C(F)(F)F)ccc3n3nnnc23)CC1` [Example 28, 4-(4-methylpiperazin-1-yl)-7-(trifluoromethyl)tetrazolo[1,5-a]quinoxaline] in this work.

An EC50 (human H1) of over 10 µM and an EC50 (human H4) of under 10 µM were found for `Fc1cc2nc(N3CCNCC3)c3nncn3c2cc1Br` [Example 184, 8-bromo-7-fluoro-4-(piperazin-1-yl)-[1,2,4]triazolo[4,3-a]quinoxaline] in this work.

An EC50 (human H1) of over 10 µM and an EC50 (human H4) of under 10 µM were found for `C=Cc1ccc2nc(N3CCNCC3)n3nc(C)nc3c2c1` [Example 138, 2-methyl-5-(piperazin-1-yl)-9-vinyl-[1,2,4]triazolo[1,5-c]quinazoline] in this work.

An EC50 (human H1) of over 10 µM and an EC50 (human H4) of under 10 µM were found for `Cc1nc2c(N3CCNCC3)nc3ccc(C(F)(F)F)cc3c2o1` [Example 215, 2-methyl-4-(piperazin-1-yl)-8-(trifluoromethyl)oxazolo[4,5-c]quinoline] in this work.

An EC50 (human H1) of under 10 µM and an EC50 (human H4) of under 10 µM were found for `Cn1cc2c(n1)c(N1CCNCC1)nc1ccc(Cl)cc12` [Example 151, 8-Chloro-2-methyl-4-(piperazin-1-yl)-2H-pyrazolo[3,4-c]quinoline] in this work.

An EC50 (human H1) of over 10 µM and an EC50 (human H4) of under 10 µM were found for `Fc1cc2c(cc1Br)nc(N1CCNCC1)c1nncn12` [Example 198, 7-bromo-8-fluoro-4-(piperazin-1-yl)-[1,2,4]triazolo[4,3-a]quinoxaline] in this work.

An EC50 (human H1) of over 10 µM and an EC50 (human H4) of under 10 µM were found for `FC(F)(F)Oc1ccc2nc(N3CCNCC3)c3nncn3c2c1` [Example 51, 4-(piperazin-1-yl)-8-(trifluoromethoxy)-[1,2,4]triazolo[4,3-a]quinoxaline] in this work.

An EC50 (human H1) of over 10 µM and an EC50 (human H4) of over 10 µM were found for `Cc1cn2c(n1)c(N1CCNCC1)nc1ccc(Cl)cc12` [Example 10, 8-Chloro-2-methyl-4-(piperazin-1-yl)imidazo[1,2-a]quinoxaline] in this work.

An EC50 (human H1) of over 10 µM and an EC50 (human H4) of under 10 µM were found for `CN1CCN(c2nc3cc(Br)c(F)cc3n3cnnc23)CC1` [Example 199, 7-bromo-8-fluoro-4-(4-methylpiperazin-1-yl)-[1,2,4]triazolo[4,3-a]quinoxaline] in this work.

An EC50 (human H1) of over 10 µM and an EC50 (human H4) of under 10 µM were found for `CN1CCN(c2nc3cc(F)c(F)cc3n3ccnc23)CC1` [Example 181, 7,8-difluoro-4-(4-methylpiperazin-1-yl)imidazo[1,2-a]quinoxaline] in this work.

An EC50 (human H1) of over 10 µM and an EC50 (human H4) of under 10 µM were found for `Clc1ccc2nc(N3CCNCC3)n3ncnc3c2c1` [Example 92, 9-Chloro-5-(piperazin-1-yl)-[1,2,4]triazolo[1,5-c]quinazoline] in this work.

An EC50 (human H1) of over 10 µM and an EC50 (human H4) of under 10 µM were found for `Cc1nc2c3cc(F)c(C(F)(F)F)cc3nc(N3CCNCC3)n2n1` [Example 130, 9-fluoro-2-methyl-5-(piperazin-1-yl)-8-(trifluoromethyl)-[1,2,4]triazolo[1,5-c]quinazoline hydrochloride] in this work.

An EC50 (human H1) of over 10 µM and an EC50 (human H4) of under 10 µM were found for `Cc1nc2c3cc(F)c(F)cc3nc(N3CCN(C)CC3)n2n1` [Example 97, 8,9-Difluoro-2-methyl-5-(4-methylpiperazin-1-yl)-[1,2,4]triazolo[1,5-c]quinazoline] in this work.

An EC50 (human H1) of over 10 µM and an EC50 (human H4) of over 10 µM were found for `CNCCN(C)c1nc2ccc(Cl)cc2n2cnnc12` [Example 77, N^1-(8-chloro-[1,2,4]triazolo[4,3-a]quinoxalin-4-yl)-N^1,N^2-dimethylethane-1,2-diamine] in this work.
